Assay results reported in patent US5110925A, “Pyridazinone derivatives” (Nippon Soda Co., Ltd., priority 1988, dated 1992).
Values after ≈ are worked out from the molar mass of the structure shown. Where two headings read alike, the source gives them in different places.

Tests used:
guinea pig left atria = experiment: Cardiotonic Action: Electrically Stimulating Isolated Guinea Pig Left Atria; parameters: species or system guinea pig (male Hartley); details: Cavia porcellus, read-out: contractility of guinea pig left atria EC50
Method: Male Hartley guinea pigs weighing 350-500 g were used.
The hearts were excised from the animals. The left atria were dissected from the hearts and mounted in an organ bath.
The atria were stimulated by square wave pulses of 3 msec duration and a voltage ranging from 1.2-fold to 1.5-fold of the threshold at a frequency of 60/min with an electric stimulator.
Resting tension was adjusted to 0.5 g and contraction was recorded on the Polygraph Systems with a force-displacement transducer.
All preparations were allowed to equilibrate with the bath medium for 90 to 120 min.

Anesthetized Dogs = experiment: Cardiotonic Action: Anesthetized Dogs; format: in vivo, dog (adult mongrel); details: for ED50: Canis lupus familiaris, iv, read-out: LVdp/dtmax ED50; for % Changes in Heart rate / % Changes in Blood pressure: i.v.; for % Changes in Blood pressure: femoral arterial pressure
Method: Adult mongrel dogs of either sex weighing 8 to 15 kg were used.
The animals were anesthetized with sodium pentobarbital (30 mg/kg, i.v.) and maintained by an intravenous infusion of the anesthetic at a rate of 4 mg/kg per hour.
A cuffed endotracheal tube was inserted and an artificial respirator installed. The animals were ventilated with room air in a tidal volume of 20 ml/kg at a rate of 20 brearhs per minute.
Cannulae were inserted into the femoral vein for a falling drop of a physiological saline or for an infusion of the anesthetic, and into the femoral artery for measuring arterial blood pressure with a pressure transducer. Heart rate was recorded with a heart rate counter triggered by the R wave of the electrocardiogram (ECG).
ECG in standard lead II was monitored with a bioelectric amplifier.
Left ventricular pressure was measured with a catheter tip pressure transducer inserted via the right carotid artery into the left ventricle. Left ventricular dp/dtmax was obtained by an electric differentiator.
The compounds were injected through the cannula in the femoral vein at a dose of 0.001-0.3 mg/0.1 ml/kg.

PDE-I = experiment: Inhibition of Phosphodiesterase PDE-I; format: biochemical, guinea pig (left ventricular muscles); details: 1 mM 3H-cAMP substrate
Excerpt: (§1) The preparation of different forms of cyclic nucleotide phosphodiesterase from guinea pig left ventricular muscles was done by following the procedure of Weishaar, et al. (R. Weishaar, et al., Biochemical Pharmacology, 35, 787-800, 1986) with the minor modified method of Thompson, et al. (W. J. Thompson, et al., Advances in Cyclic Nucleotide Research, 10, 69-92, 1979). Briefly, the three active forms of phosphodiesterase (PDE-I, PDE-II, PDE-III) present in the ventricular muscles were discretely eluted from a DEAE-cellulose column (Whatman, DE-52, .phi. 2.5×20 cm) using a continuous 70-800 mM sodium acetate gradient.
(§2) The phosphodiesterase activity was assayed by minor modifications of the method described by Furutani et al. (Y. Furutani, et al., Journal of Antibiotics, 28, 558-560, 1975). Briefly, 1 mM ^3 H-cAMP was hydrolyzed by the phosphodiesterase and the unhydrolyzed ^3 H-cAMP which was separated from the formed 5'-AMP by a dry alumina (Merck, activity 1, neutral) was counted by a liquid scintillation counter.
(§3) The concentrations causing a 50% inhibition of the phosphodiesterase activity (IC50) were calculated from the concentration-inhibition curves.

PDE-III = target: T1, PDE-III (Cavia porcellus, UniProt H0VIU9); experiment: Inhibition of Phosphodiesterase PDE-III; format: biochemical, guinea pig (left ventricular muscles)
T1 construct: different forms of cyclic nucleotide phosphodiesterase from guinea pig left ventricular muscles; from tissue; host or cells: guinea pig left ventricular muscle, DEAE-cellulose fraction
T1 sequence (H0VIU9 1-1132): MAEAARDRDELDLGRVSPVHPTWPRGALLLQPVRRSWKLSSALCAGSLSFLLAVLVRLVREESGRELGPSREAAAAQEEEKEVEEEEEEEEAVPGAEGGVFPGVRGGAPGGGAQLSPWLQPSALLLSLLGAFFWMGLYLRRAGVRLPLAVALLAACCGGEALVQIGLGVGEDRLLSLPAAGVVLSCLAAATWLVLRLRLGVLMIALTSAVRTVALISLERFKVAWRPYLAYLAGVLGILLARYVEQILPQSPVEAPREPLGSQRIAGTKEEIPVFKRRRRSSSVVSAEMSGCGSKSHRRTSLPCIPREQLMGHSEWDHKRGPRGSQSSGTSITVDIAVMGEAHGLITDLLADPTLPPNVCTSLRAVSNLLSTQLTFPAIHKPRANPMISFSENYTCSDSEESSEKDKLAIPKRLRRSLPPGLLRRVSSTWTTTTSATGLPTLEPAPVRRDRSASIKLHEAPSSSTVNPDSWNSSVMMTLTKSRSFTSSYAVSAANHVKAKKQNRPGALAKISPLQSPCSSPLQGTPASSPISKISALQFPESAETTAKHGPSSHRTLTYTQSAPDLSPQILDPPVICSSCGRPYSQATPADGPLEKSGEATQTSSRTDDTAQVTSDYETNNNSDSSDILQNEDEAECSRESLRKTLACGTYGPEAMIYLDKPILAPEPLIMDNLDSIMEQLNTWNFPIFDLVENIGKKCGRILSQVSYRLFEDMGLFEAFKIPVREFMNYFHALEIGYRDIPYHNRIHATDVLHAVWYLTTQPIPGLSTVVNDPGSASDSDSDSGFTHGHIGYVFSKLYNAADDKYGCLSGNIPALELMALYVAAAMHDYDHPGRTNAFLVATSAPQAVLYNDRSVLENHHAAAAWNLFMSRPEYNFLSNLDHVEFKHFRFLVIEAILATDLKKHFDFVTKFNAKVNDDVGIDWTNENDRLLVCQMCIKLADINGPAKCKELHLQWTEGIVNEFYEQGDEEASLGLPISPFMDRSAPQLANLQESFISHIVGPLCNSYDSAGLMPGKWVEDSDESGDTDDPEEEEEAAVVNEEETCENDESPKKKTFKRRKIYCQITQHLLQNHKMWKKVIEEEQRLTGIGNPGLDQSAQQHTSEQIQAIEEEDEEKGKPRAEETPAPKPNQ
Excerpt: as §1, §2, §3

mice = experiment: Acute Toxicity in mice, oral single dose; format: in vivo, mouse (male); details: male mice, 300 mg/kg, p.o., 7 days observation
Excerpt: The acute toxicity of the test compounds was studied in male mice after oral administration of a single dose.

PDE-II = target: T2, PDE-II (Cavia porcellus, UniProt A0A286XUV5); experiment: Inhibition of Phosphodiesterase PDE-II; format: biochemical, guinea pig (left ventricular muscles); details: 1 mM 3H-cAMP substrate
T2 construct: different forms of cyclic nucleotide phosphodiesterase from guinea pig left ventricular muscles; from tissue; host or cells: guinea pig left ventricular muscle, DEAE-cellulose fraction
T2 sequence (A0A286XUV5 22-936): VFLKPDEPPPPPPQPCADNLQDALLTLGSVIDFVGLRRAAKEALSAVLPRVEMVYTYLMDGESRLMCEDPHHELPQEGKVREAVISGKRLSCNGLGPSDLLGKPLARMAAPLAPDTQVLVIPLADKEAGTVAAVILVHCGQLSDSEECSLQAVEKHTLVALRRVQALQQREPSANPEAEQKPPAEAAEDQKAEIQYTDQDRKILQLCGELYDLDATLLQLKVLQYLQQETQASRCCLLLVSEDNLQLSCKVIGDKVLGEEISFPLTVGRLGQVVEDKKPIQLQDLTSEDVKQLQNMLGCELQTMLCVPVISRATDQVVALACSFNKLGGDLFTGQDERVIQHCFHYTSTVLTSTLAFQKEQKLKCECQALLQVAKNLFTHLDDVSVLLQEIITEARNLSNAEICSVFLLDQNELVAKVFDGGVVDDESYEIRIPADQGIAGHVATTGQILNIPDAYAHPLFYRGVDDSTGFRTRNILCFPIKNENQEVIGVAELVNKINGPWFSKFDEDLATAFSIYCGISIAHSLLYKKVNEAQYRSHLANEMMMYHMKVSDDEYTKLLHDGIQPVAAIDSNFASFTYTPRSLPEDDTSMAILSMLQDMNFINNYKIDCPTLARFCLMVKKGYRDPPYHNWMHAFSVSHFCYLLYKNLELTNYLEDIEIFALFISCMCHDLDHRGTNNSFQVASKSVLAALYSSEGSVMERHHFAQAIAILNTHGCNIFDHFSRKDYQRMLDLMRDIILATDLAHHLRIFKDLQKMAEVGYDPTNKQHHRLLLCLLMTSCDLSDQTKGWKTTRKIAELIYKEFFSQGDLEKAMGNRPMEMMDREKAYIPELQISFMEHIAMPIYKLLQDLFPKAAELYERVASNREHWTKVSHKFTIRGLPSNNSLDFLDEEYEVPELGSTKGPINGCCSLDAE
Excerpt: as §1, §2, §3

[1] = concentration causing a 50% increase in contractility, cumulative addition, 30° C.
[2] = dose producing a 50% increase in LVdp/dtmax, anesthetized dogs
[3] = 1 mM 3H-cAMP substrate, read-out: phosphodiesterase inhibition IC50 PDE-III

Row | SMILES | EC50 (guinea pig left atria; [1]) [µg/mL] | ED50 (Anesthetized Dogs; [2]) [mg/kg] | % Changes in Heart rate (Anesthetized Dogs; anesthetized dogs) [%] | % Changes in Blood pressure (Anesthetized Dogs; anesthetized dogs) [%] | IC50 (PDE-I) [µM] | IC50 (PDE-III; [3]) [µM] | mortality (number of dead animals/number of treated animals) (mice) | IC50 (PDE-II) [µM] | EC50 (guinea pig left atria) [µg/mL] | ED50 (Anesthetized Dogs) [mg/kg] | IC50 (PDE-III) [µM]
1 | O=C1CCC(c2ccc(-n3ccnc3)cc2)=NN1 [CI-914, reference compound] | 1.8 (≈ 7.49 µM) | 0.095 | 9 | -10 | > 1000 | 5.7 | 2/3 | – | – | – | –
2 | CC1(C)CC(=O)C=C(Nc2ccc(C3=NNC(=O)CC3)cc2)C1 [Compound 1] | 0.23 (≈ 0.739 µM) | 0.043 | 5 | -1 | 900 | 1.2 | 0/3 | 250 | – | – | –
3 | O=C1C=C(Nc2ccc(C3=NNC(=O)CC3)cc2)CC1 [Compound 2, 4,5-Dihydro-6-((4-(3-oxo-1-cyclopentenyl)amino)phenyl)-3(2H)-pyridazinone] | 0.11 (≈ 0.408 µM) | 0.006 | 6 | -2 | 1000 | 1.2 | 0/3 | 235 | – | – | –
4 | O=C1C=C(Nc2ccc(C3=NNC(=O)CC3)cc2)CCC1 [Compound 3] | 0.23 (≈ 0.812 µM) | 0.009 | 2 | -4 | 210 | 0.47 | 0/3 | 180 | – | – | –
5 | CC1=C(Nc2ccc(C3=NNC(=O)CC3)cc2)CCC1=O [Compound 4, 4,5-Dihydro-6-(4-((2-methyl-3-oxo-1-cyclopentenyl)-amino)phenyl)-3(2H)-pyridazinone] | 0.24 (≈ 0.847 µM) | 0.012 | 5 | -2 | 610 | 2 | 1/3 | 330 | – | – | –
6 | CC1CC(=O)NN=C1c1ccc(NC2=CC(=O)CC2)cc1 (stereo not shown) [Compound 14, 4,5-Dihydro-6-(4-((3-oxo-1-cyclopentenyl)amino)phenyl)-5-methyl-3(2H)-pyridazinone] | 0.12 (≈ 0.424 µM) | 0.008 | 13 | -11 | 310 | 0.88 | – | 260 | – | – | –
7 | CC1=C(Nc2ccc(C3=NNC(=O)CC3C)cc2)CCC1=O (stereo not shown) [Compound 15, 4,5-Dihydro-6-(4-((2-methyl-3-oxo-1-cyclopentenyl)amino)phenyl)-5-methyl-3(2H)-pyridazinone] | 0.054 (≈ 0.182 µM) | 0.012 | 19 | -18 | > 1000 | 0.59 | – | 940 | – | – | –
8 | O=C1C=C(Nc2ccc3c(c2)OCC2CC(=O)NN=C32)CC1 (stereo not shown) [Compound 24, 8-(3-oxo-1-cyclopentenylamino)-3,4,4a,5-tetrahydro-2H-(1)benzopyrano(4,3-c)-pyridazinon-3-one] | – | 0.022 | 4 | -7 | > 100 | 4.1 | – | 100 | – | – | –
9 | CC1=C(Nc2ccc3c(c2)OCC2CC(=O)NN=C32)CCC1=O (stereo not shown) [Compound 26] | – | 0.03 | 8 | -6 | > 1000 | 2.3 | – | 100 | – | – | –
10 | O=C1C=C(Nc2ccc3c(c2)CCC2CC(=O)NN=C32)CC1 (stereo not shown) [Compound 35] | – | 0.023 | 3 | -4 | > 100 | 1.6 | – | 49 | – | – | –
11 | Cc1[nH]c(=O)c(C#N)cc1-c1ccncc1 [Milrinone, milrinone, reference compound] | – | – | 6 | -6 | 151 | – | 3/3 | 142 | 0.43 (≈ 2.04 µM) | 0.023 | 2.8
